Read-outs that look alike come from different tables or passages of the source.
Columns and labels:
T. vaginalis ATCC 30001 = assay: Antianaerobic activity, MIC by standard broth dilution method (Table II); type: cell-based; settings: Trichomonas vaginalis, ATCC30001, 24 h, read-out: Minimal Inhibitory Concentration (MIC)
In short: (§1)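 MIC determined by standard broth dilution against single strains of the anaerobes and T. vaginalis.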

B. uniformis ATCC 8492 = assay: as above; type: cell-based; settings: Bacteroides uniformis, ATCC8492, 24 h, read-out: Minimal Inhibitory Concentration (MIC)
In short: as §1

B. fragilis ATCC 23745 = assay: as above; type: cell-based; settings: Bacteroides fragilis, ATCC23745, 24 h, read-out: Minimal Inhibitory Concentration (MIC)
In short: as §1

candida = assay: Intravenous administration: recovery of viable candida cells from the kidneys of infected mice; type: in vivo; settings: 25 mg/ml
C. sporogenes ATCC 19404 = assay: Antianaerobic activity, MIC by standard broth dilution method (Table II); type: cell-based; settings: Clostridium sporogenes, ATCC19404, 24 h, read-out: Minimal Inhibitory Concentration (MIC)
In short: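 Minimum inhibitory concentration determined by standard broth dilution against a single Clostridium sporogenes strain under anaerobic test conditions.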

[1] = tested on: Trichophyton mentagrophytes; assay: Experimental Trichophyton mentagrophytes infection in guinea pigs; type: in vivo
Description: Effect of oral or topical administration of HC274, HC344, Clotrimazole, and Ketoconazole on experimental Trichophyton mentagrophytes infection in guinea pigs.
*Based on degree of hair loss, erythema, desquamation, Max. = 100
Treatments administered in Carbopol® gel, once daily days 5-10.

[2] = tested on: Desulfovibrio desulfuricans API-SW2; assay: Minimal inhibitory concentration against anaerobic bacteria; settings: for Minimal Inhibitory Concentration: 24 hours at 37° C.
[3] = tested on: Clostridium sporogenes ATCC 19404; assay: as above; type: cell-based; settings: ATCC19404, 24 h
C. albicans [4] = assay: Vaginal candida infection in rats, oral or topical treatment; type: in vivo
Description: Effect of oral or topical administration of HC274 and ketoconazole on vaginal candida infection in rats. Clearance of C. albicans from rat vagina following oral or topical treatment (as percentage of control).
Topical treatment: 1% solution in polyethylene glycol administrated twice daily for 3 days.
Oral treatment: Once daily for 3 days.

[5] = tested on: Bacteroides uniformis ATCC 8492; assay: Minimal inhibitory concentration against anaerobic bacteria; settings: ATCC8492, 24 h
[6] = tested on: Bacteroides fragilis ATCC 23745; assay: as above; settings: ATCC23745, 24 h
in vivo = settings: male mice, 7 day
candida albicans = assay: Oral treatment: recovery of viable candida albicans from the kidneys of infected mice; type: in vivo
Description: Effect of oral treatment with HC274, HC316, HC390, HC415 and Ketoconazole on the recovery of viable candida albicans from the kidneys of infected mice.

C. albicans [7] = assay: Recovery of viable candida cells from the kidneys of infected mice (p.o. and i.v. treatment); type: in vivo; settings: 25 mg/kg 1 h and 24 h after infection
Description: Mice receive 25×10^4 cells of C. albicans i.v. Treatments (25 mg/kg) administered in PEG/Dextrose 1 h and 24 h after infection. Animals sacrified 48 h after infection and kidneys excised, weighed, homogenized and decimal dilutions spread on glucose-peptone agar.

[8] = read-out: Minimal Inhibitory Concentration, Test 1, 24 hours at 37° C.
[9] = read-out: Minimal Inhibitory Concentration, Test 2, 24 hours at 37° C.
[10] = read-out: Minimal Inhibitory Concentration, Test 3, 24 hours at 37° C.

Compound: Cl.Clc1ccc(/C(Cn2ccnc2)=N\Nc2ccc(Cl)cc2Cl)cc1 [HC274, (E)-1-(4-chlorophenyl)-2-(1H-imidazol-1-yl)ethanone, 2,4-dichlorophenylhydrazone, hydrochloride]
- MIC (T. vaginalis ATCC 30001; Test 1): 5 µg/mL
- MIC (T. vaginalis ATCC 30001; Test 2): 7.5 µg/mL
- MIC (T. vaginalis ATCC 30001; Test 3): > 10 µg/mL
- MIC (B. uniformis ATCC 8492; Test 1): 2.5 µg/mL
- MIC (B. uniformis ATCC 8492; Test 2): 2.5 µg/mL
- MIC (B. uniformis ATCC 8492; Test 3): 5 µg/mL
- MIC (B. fragilis ATCC 23745; Test 1): 2.5 µg/mL
- MIC (B. fragilis ATCC 23745; Test 2): 5 µg/mL
- MIC (B. fragilis ATCC 23745; Test 3): 7.5 µg/mL
- CFU/g kidney (candida): 7.7 × 10^3 CFU/g kidney
- CFU/g kidney, % of control (candida): 52 % of control
- MIC (C. sporogenes ATCC 19404; Test 1): 2.5 µg/mL
- MIC (C. sporogenes ATCC 19404; Test 2): 2.5 µg/mL
- MIC (C. sporogenes ATCC 19404; Test 3): 7.5 µg/mL
- Disease rating (degree of hair loss, erythema, desquamation, Max. = 100) ([1]; 40 mg/kg p.o., day 5 after infection): 100
- Disease rating (degree of hair loss, erythema, desquamation, Max. = 100) ([1]; 40 mg/kg p.o., day 10 after infection): 46.9
- Disease rating (degree of hair loss, erythema, desquamation, Max. = 100) ([1]; topical, 1% w/w in Carbopol gel once daily days 5-10, day 10 after infection): 35.4
- Disease rating (degree of hair loss, erythema, desquamation, Max. = 100) ([1]; topical, 1% w/w in Carbopol gel, day 5 after infection): 100
- MIC ([2]; Desulfovibrio desulfuricans, APISW2, 24 h, read-out: Minimal Inhibitory Concentration): 1 µg/mL
- Minimal Inhibitory Concentration ([2]; Test 2): 1.0 mg/L
- Minimal Inhibitory Concentration ([2]; Test 3): 1.0 mg/L
- MIC ([3]; Test 1, 24 hours at 37° C.): 2.5 µg/mL
- MIC ([3]; Test 2, 24 hours at 37° C.): 2.5 µg/mL
- MIC ([3]; Test 3, 24 hours at 37° C.): 7.5 µg/mL
- Clearance of C. albicans from rat vagina (as percentage of control) (C. albicans [4]; oral, 10 mg/kg once daily for 3 days): 94.3 percentage of control
- Clearance of C. albicans from rat vagina (as percentage of control) (C. albicans [4]; oral, 20 mg/kg once daily for 3 days): 91.3 percentage of control
- Clearance of C. albicans from rat vagina (as percentage of control) (C. albicans [4]; topical, 1% solution in polyethylene glycol twice daily for 3 days): 95.5 percentage of control
- MIC [5, 8]: 2.5 µg/mL
- MIC [5, 9]: 2.5 µg/mL
- MIC [5, 10]: 5 µg/mL
- MIC [6, 8]: 2.5 µg/mL
- MIC [6, 9]: 5 µg/mL
- MIC [6, 10]: 7.5 µg/mL
- LD50 at 168 h (in vivo; mouse, in vivo, iv, read-out: LD50): 85 mg/kg
- LD12.5 (in vivo; p.o.): 440 mg/kg
- Recovery of C.albicans (as percentage of control) (candida albicans; 5 mg/kg): 84.2 percentage of control
- Recovery of C.albicans (as percentage of control) (candida albicans; 20 mg/kg): 47.8 percentage of control
- No. of CFU/g kidney at 48 h (C. albicans [7]; i.v.): 9 × 10^2 CFU/g kidney
- No. of CFU/g kidney at 48 h (C. albicans [7]; p.o.): 3.3 × 10^3 CFU/g kidney

Source: patent publication US4351948A, “Imidazole hydrazone derivatives” (priority 1980, dated 1982)
